# Reference: patent US20110245197A1, “HYPERSULFATED GLUCOPYRANOSIDES” (OPKO Health, Inc., priority 2010, published 2011)
# System: allergic sheep (dual bronchoconstrictor responders to Ascaris suum antigen)
# Experiment: Antigen-induced change in specific pulmonary airflow resistance (SRL): early (EAR) and late (LAR) airway response in allergic sheep
# Format: in vivo
# Protocol: Pulmonary airflow resistance was measured by taking allergic sheep previously verified as dual bronchoconstrictor responders to Ascaris suum antigen. The sheep were intubated with a cuffed nasotracheal tube and pulmonary airflow resistance (RL) was measured by the esophageal balloon catheter technique, while thoracic gas volume was measured by body plethysmography. Data were expressed as specific RL (SRL, defined as RL times thoracic gas volume (Vtg)). Airway responsiveness was determined by first securing cumulative dose response curves to inhaled carbachol (a constrictor agonist) by measuring SRL before and after inhalation of buffered saline and after each administration of 10 breaths of increasing concentrations of carbachol (0.25, 0.5, 1.0, 2.0 and 4.0% wt/vol solution). Airway responsiveness was measured by determining the cumulative provocation dose (PD400) of carbachol (in breath units) that increased SRL to 400% above baseline. One breath unit was defined as one breath of 1% carbachol solution.
# To illustrate the effectiveness of the formulations according to the invention to treat and alleviate allergen related diseases and conditions, including but not limited to the specific diseases and conditions recited herein, sheep were assessed in multiple experiments which compared various formulations containing no added polymer or additive to animals which were provided formulations comprising a compound of formula I (as compound 1a) along with an optional additive selected from a polymer. To measure pulmonary airflow resistance, the sheep were intubated with a cuffed nasotracheal tube and pulmonary airflow resistance (RL) was measured by the esophageal balloon catheter technique, while thoracic gas volume was measured by body plethysmography. […] Data were expressed as specific RL (SRL defined as RL× thoracic gas volume (Vg).
# For airway studies, each animal's baseline airway responsiveness (PD400)) was determined and then, on different experimental days, the test sheep underwent airway challenge with Ascaris suum antigen. […]
# [1] = aerosol 0.5 mgs/kg (approximately 20 mgs), thirty minutes before antigen challenge, n=5 (FIG. 11)
substance,measurement,setting,value
aluminum salt of octasulfated sucrose,LAR % protection,[1],0%
same,effect on EAR,[1],no significant effect
same,effectiveness (general statement),"general statement in the description, supported by FIG. 11",not effective
